Source: patent US20140120088A1, “AGENTS FOR THE TREATMENT OF TUMORS” (Assistance Publique-Hopitaux de Paris, priority 2011, published 2014)

Tested on: high-grade glioma with subarachnoid extension
Experiment: treatment of patients with high-grade glioma with subarachnoid extension
Format: in vivo, human
Conditions: responding patients; before the combined treatment, under bevacizumab alone, or when intrathecal CpG was resumed
Description: Four patients had high-grade glioma with subarachnoid extension. The treatment protocol of patients was as follows:
Subcutaneous injection of 0.3 mg/kg of CpG-ODN at D0, D7, D14, D21 et D28 (capped at 25 mg per injection, for patients>83 kg)
Intrathecal administration of CpG-ODN (7 mg) (in the cerebrospinal fluid) three times, with a two-week interval between each injection (D0, D14 and D28). (In 2 patients, the intrathecal injections were continued every 2 to 4 weeks for several months). (Other intrathecal injections of larger amounts of CpG-ODN (14 mg or 17 mg), again in three steps with a two weeks interval between each injection are currently tested, in other patients in a clinical trial.)
Intravenous perfusions of Avastin from 5 to 10 mg/kg every 2 weeks, started, depending on the cases, before, during or after the beginning of CpG-ODN.

Substance | clinical outcome under single agent or on resuming the combination
5′-TAAACGTTATAACGTTATGACGTCAT-3′ [CpG] | only a slight improvement
Bevacizumab: monoclonal antibody directed against VEGF, marketed by Roche under the name of Avastin | progression
